{"source": "patent US9283166B2", "about": "“Modulation of melanogenesis by modification of tyrosinase by palmitoylation” (ELC Management LLC, priority 2012, dated 2016)", "key": {"tyrosinase [1]": {"system": "tyrosinase", "assay": "Ubiquitination of tyrosinase in NHEM (IP and WB)", "type": "cell-based, human", "conditions": "5 μM, 24 hours", "method": "NHEM were treated with 5 μM 2-BP for 24 hours. Equal protein amounts of cell lysate were used for IP by tyrosinase, and the ubiquitinated (UB) level of tyrosinase was analyzed by WB using anti-UB antibody."}, "[2]": {"system": "Reconstructed human skin models (Asian type)", "assay": "Melanin content in reconstructed human skin model", "type": "cell-based", "conditions": "25 μM, 17 days, vs. DMSO", "method": "(§1) NHEM were treated with indicated concentrations of 2-BP for 48 hours. Melanin content (closed bar) and cell number (open bar) were measured. Values are the average of three determinations±SE. *p<0.05 vs. DMSO. Macroscopic views of cell pellet were taken by digital camera (FIG. 3A). Reconstructed human skin models (Asian type) were incubated with 25 μM 2-BP for 17 days. Eumelanin (EM) and pheomelanin (PM) contents were determined and calculated by following formula. EM=PTCA*25, PM=4−AHP*9. Values are the average of three determinations±SE.*p<0.05 vs. DMSO. Macroscopic views of a human skin model after 17 days were taken by digital camera (FIG. 3B)."}, "tyrosinase [3]": {"system": "tyrosinase", "assay": "Total tyrosinase protein in NHEM by Western-blot", "type": "cell-based, human", "conditions": "24 hours, various concentrations, vs. DMSO, normalized by tubulin", "method": "(§2) Normal human epidermal melanocytes (NHEM) were incubated with 2-bromopalmitate (2-BP) for 24 hours, and total tyrosinase was determined by Western-blot (WB) using the mouse monoclonal anti-tyrosinase IgG antibody T311 (1:120 dilution). Total tyrosinase protein level was normalized by tubulin. Palmitoylated tyrosinase was evaluated by acyl-RAC and WB. The results shown in FIGS. 2A and 2B, are the average of three determinations SE. *p<0.05 vs. DMSO."}, "Tyrosinase mRNA": {"system": "Tyrosinase mRNA", "assay": "Tyrosinase mRNA by real time quantitative PCR in NHEM", "type": "cell-based, human", "conditions": "6 or 24 hours", "method": "(§3) NHEM were cultured with 2-BP for 6 or 24 hours. Tyrosinase mRNA levels were analyzed by real time quantitative PCR. The results shown are the average of three determinations±SE.*p<0.05 vs. DMSO (FIG. 4A). NHEM were incubated with 5 μM 2-BP for 24 hours. Glycosidase digestion treatment by endo H and WB analysis on mature and immature form of tyrosinase were conducted by WB (FIG. 4B)."}, "tyrosinase [4]": {"system": "tyrosinase", "assay": "Palmitoylated tyrosinase in NHEM by acyl-RAC and WB", "type": "cell-based, human", "conditions": "24 hours, vs. DMSO", "method": "as §2"}, "NHEM": {"system": "NHEM", "assay": "Melanin content in NHEM", "type": "cell-based, human", "conditions": "48 hours, various concentrations, vs. DMSO", "method": "as §1"}, "tyrosinase [5]": {"system": "tyrosinase", "assay": "Degradation of tyrosinase in cycloheximide-treated NHEM (WB)", "type": "cell-based, human", "conditions": "4 hours", "method": "NHEM were treated with 1 μg/ml cycloheximide, protein synthesis inhibitor, and with (▪) or without (⋄) 10 μM 2-BP for 4 hours. Tyrosinase levels were analyzed by WB using the mouse monoclonal anti-tyrosinase IgG antibody T311 (1:120 dilution). The band intensities of tyrosinase were normalized by the band intensities of Glyceraldehyde 3-phosphate dehydrogenase (GAPDH) as internal control for each condition. The results shown are the average of three determinations±SE.*p<0.05 vs. DMSO (FIGS. 5A and 5B)."}, "tyrosinase [6]": {"system": "tyrosinase", "assay": "Glycosylation of tyrosinase (endo H digestion and WB) in NHEM", "type": "cell-based, human", "conditions": "5 μM, 24 hours", "method": "as §3"}, "[7]": {"target": "T1, Palmitoyl:protein thioesterase (PPT1) (Homo sapiens, UniProt P50897)", "T1 sequence (P50897 28-306)": "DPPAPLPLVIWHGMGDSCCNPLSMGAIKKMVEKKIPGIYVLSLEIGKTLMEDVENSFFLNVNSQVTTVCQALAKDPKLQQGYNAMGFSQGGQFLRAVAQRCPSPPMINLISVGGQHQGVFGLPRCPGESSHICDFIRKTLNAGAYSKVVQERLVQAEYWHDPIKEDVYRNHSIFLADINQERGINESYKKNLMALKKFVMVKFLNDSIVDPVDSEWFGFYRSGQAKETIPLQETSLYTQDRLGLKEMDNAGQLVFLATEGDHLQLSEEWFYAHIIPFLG", "conditions": "cited from earlier work; for PPT1 inhibitory activity: result in words"}, "NHEM (Asian)": {"system": "NHEM (Asian)", "assay": "Melanin synthesis in NHEM with PP2 or KA, with or without 2-BP", "type": "cell-based, human", "conditions": "120 hours", "method": "NHEM (Asian) were incubated for 120 hours in the presence of PP2, with or without 2-BP. […] Mean±S.E. (N=3)*p<0.05, vs. control. Kojic Acid (KA) was used as a positive control."}}}
{"molecule": "CCCCCCCCCCCCCCC(Br)C(=O)O", "note": "(stereo not drawn) [2-BP, 2-bromopalmitate]", "values": [{"measurement": "ubiquitination of tyrosinase", "setting": "tyrosinase [1]", "value": "no effect"}, {"measurement": "total melanin: eumelanin (EM) and pheomelanin (PM) content of the tissue", "setting": "[2]", "value": "statistically significant increase"}, {"measurement": "total amount of tyrosinase protein per cell", "setting": "tyrosinase [3]", "value": "statistically significant increase"}, {"measurement": "tyrosinase mRNA expression", "setting": "Tyrosinase mRNA", "value": "decrease"}, {"measurement": "amount of palmitoylated tyrosinase", "setting": "tyrosinase [4]", "value": "decreased"}, {"measurement": "melanin content per cell", "setting": "NHEM", "value": "statistically significant increase"}, {"measurement": "degradation of tyrosinase", "setting": "tyrosinase [5]; 10 μM with 1 μg/ml cycloheximide", "value": "suppresses the degradation of tyrosinase"}, {"measurement": "glycosylation of tyrosinase", "setting": "tyrosinase [6]", "value": "no effect"}]}
{"molecule": "GGC(Pal) VKIKK [CS8]", "values": [{"measurement": "PPT1 inhibitory activity", "setting": "[7]", "value": "comparable inhibitory activity to CS38"}]}
{"molecule": "NBD-αAGDap(Pal)VKIKK [CS38]", "values": [{"measurement": "inhibitor potency relative to Dap1", "setting": "[7]; PPT1 inhibition, compared with Dap1", "value": 3, "unit": "fold"}, {"measurement": "IC50", "setting": "[7]; PPT1 inhibition", "value": 2000, "unit": "nM"}]}
{"molecule": "O=c1cc(CO)occ1O", "note": "[Kojic acid, Kojic Acid]", "values": [{"measurement": "melanin synthesis", "setting": "NHEM (Asian); 2-BP-treated cells", "value": "mildly inhibited melanin synthesis"}, {"measurement": "melanin synthesis", "setting": "NHEM (Asian); cells not treated with 2-BP", "value": "mildly inhibited melanin synthesis"}]}
{"molecule": "AcGDap(Palm)GGR7", "values": [{"measurement": "PPT1 inhibitory activity", "setting": "[7]", "value": "strong PPT1 inhibitors"}]}
{"molecule": "C[C@@H]1C[C@@H]([C@H](O)CC2CC(=O)NC(=O)C2)C(=O)[C@@H](C)C1", "note": "[cycloheximide]", "values": [{"measurement": "tyrosinase levels", "setting": "tyrosinase [5]; 1 μg/ml cycloheximide", "value": "decreased"}]}
